In publication PMC10959927, “Platinum iodido drugs show potential anti-tumor activity, affecting cancer cell metabolism and inducing ROS and senescence in gastrointestinal cancer cells” (Communications Biology, 2024):
“And” between values parts separate entries of the source, which are not always exact repeats. Equal entries are not always repeated.

How the values were obtained:
[1] = test system: AGS cells; assay: Seahorse XF OCR, ECAR and energy map; format: cell-based, human
Experimental: (§1) Oxygen Consumption Rate (OCR), Extra Cellular Acidification Rate (ECAR) and Energy map measurements. Cells were plated in XF HS Miniplates (Seahorse Bioscience) at a cellular density of 1 × 10^4 cells/well and incubated overnight. […] After an OCR baseline measurement, the minimum oxygen consumption was determined by adding 1.5 µM oligomycin (O) and the maximal respiration rate was assessed by adding 1 µM carbonyl cyanide p-trifluoro methoxyphenylhydrazone (FCCP, F). At the end of the experiment, the non-mitochondrial oxygen consumption was evaluated by adding both 0.5 µM rotenone (R) and antimycin (A). Experiments were run in a XF HS Mini analyzer (Seahorse Agilent), and raw data were normalized to total protein using a BCA protein assay kit (Cat. no. 23225, Thermo Scientific).

[2] = test system: MKN45 cells; assay: Seahorse XF OCR, ECAR and energy map; format: cell-based, human; design: Basal resp. / Maximal resp. / SRC: unit not given here
Experimental: as §1

CC(C)[NH][Pt@SP1]([I])([I])[NH]C(C)C [I6, cis-[PtI2(isopropylamine)2]]
ECAR, Mean (energy map) ([1]; AGS (with I5)): 23.74 mpH/min/absorbance
OCR, Mean (energy map) ([1]; AGS (with I5)): 42.84 pmol/min/absorbance
ECAR (energy map) ([1]; AGS (with I6)): 45.46 mpH/min/absorbance
ECAR, Mean (energy map) ([1]; AGS (with I6)): 48.0093 mpH/min/absorbance
OCR (energy map) ([1]; AGS (with I6)): 48.01 pmol/min/absorbance
OCR, Mean (energy map) ([1]; AGS (with I6)): 45.4641 pmol/min/absorbance
effect on ECAR ([1]; AGS, IC50 24 h): no apparent effect
OCR ([1]; AGS, IC50 24 h, time 1.53 min (I5) / 1.53 min (I6)): 30.1319 pmoles/min/µg protein and 31.3797 pmoles/min/µg protein and 53.7109 pmoles/min/µg protein
OCR ([1]; AGS, IC50 24 h, time 8.04 min (I5) / 8.02 min (I6)): 24.9329 pmoles/min/µg protein and 27.5046 pmoles/min/µg protein and 48.0298 pmoles/min/µg protein
OCR ([1]; AGS, IC50 24 h, time 14.54 min (I5) / 14.51 min (I6)): 26.4797 pmoles/min/µg protein and 27.4562 pmoles/min/µg protein and 48.9415 pmoles/min/µg protein
OCR ([1]; AGS, IC50 24 h, time 21.13 min (I5) / 21.08 min (I6)): 22.9934 pmoles/min/µg protein and 21.9038 pmoles/min/µg protein and 30.7096 pmoles/min/µg protein
OCR ([1]; AGS, IC50 24 h, time 27.59 min (I5) / 27.57 min (I6)): 20.5189 pmoles/min/µg protein and 20.6073 pmoles/min/µg protein and 30.1901 pmoles/min/µg protein
OCR ([1]; AGS, IC50 24 h, time 34.07 min (I5) / 34.06 min (I6)): 21.4481 pmoles/min/µg protein and 20.5528 pmoles/min/µg protein and 31.2982 pmoles/min/µg protein
OCR ([1]; AGS, IC50 24 h, time 60.15 min (I5) / 60.16 min (I6)): 12.0701 pmoles/min/µg protein and 11.1961 pmoles/min/µg protein and 18.1823 pmoles/min/µg protein
OCR ([1]; AGS, IC50 24 h, time 66.63 min (I5) / 66.65 min (I6)): 12.0579 pmoles/min/µg protein and 11.0677 pmoles/min/µg protein and 17.3668 pmoles/min/µg protein
OCR ([1]; AGS, IC50 24 h, time 73.12 min (I5) / 73.14 min (I6)): 11.7846 pmoles/min/µg protein and 9.533 pmoles/min/µg protein and 17.3382 pmoles/min/µg protein
ECAR, Mean (energy map) ([2]; MKN45 (with I5)): 17.85 mpH/min/absorbance
OCR, Mean (energy map) ([2]; MKN45 (with I5)): 73.36 pmol/min/absorbance
ECAR (energy map) ([2]; MKN45 (with I6)): 73.12 mpH/min/absorbance
ECAR, Mean (energy map) ([2]; MKN45 (with I6)): 230.729 mpH/min/absorbance
OCR (energy map) ([2]; MKN45 (with I6)): 230.7 pmol/min/absorbance
OCR, Mean (energy map) ([2]; MKN45 (with I6)): 73.1182 pmol/min/absorbance
ATP-product. coupled resp. ([2]; MKN45, IC50 24 h): 104.06 and 161.5 and 167.13
Basal resp. ([2]; MKN45, IC50 24 h): 127.94 and 199.95 and 209.1
Maximal resp. ([2]; MKN45, IC50 24 h): 239.39 and 365.62 and 377.71
SRC ([2]; MKN45, IC50 24 h): 111.45 and 165.66 and 168.61
effect on ECAR ([2]; MKN45, IC50 24 h): no apparent effect
OCR ([2]; MKN45, IC50 24 h, time 1.53 min (I5) / 1.53 min (I6)): 147.857 pmoles/min/µg protein and 218.375 pmoles/min/µg protein and 227.071 pmoles/min/µg protein
OCR ([2]; MKN45, IC50 24 h, time 8.04 min (I5) / 8.03 min (I6)): 138.707 pmoles/min/µg protein and 201.479 pmoles/min/µg protein and 205.427 pmoles/min/µg protein
OCR ([2]; MKN45, IC50 24 h, time 14.51 min (I5) / 14.5 min (I6)): 135.932 pmoles/min/µg protein and 195.066 pmoles/min/µg protein and 199.064 pmoles/min/µg protein
OCR ([2]; MKN45, IC50 24 h, time 21.06 min (I5) / 21.09 min (I6)): 69.6082 pmoles/min/µg protein and 82.0209 pmoles/min/µg protein and 78.1047 pmoles/min/µg protein
OCR ([2]; MKN45, IC50 24 h, time 27.57 min (I5) / 27.59 min (I6)): 57.4221 pmoles/min/µg protein and 74.9291 pmoles/min/µg protein and 73.3602 pmoles/min/µg protein
OCR ([2]; MKN45, IC50 24 h, time 34.08 min (I5) / 34.07 min (I6)): 57.8854 pmoles/min/µg protein and 73.9423 pmoles/min/µg protein and 73.7207 pmoles/min/µg protein
OCR ([2]; MKN45, IC50 24 h, time 40.66 min (I5) / 40.62 min (I6)): 219.523 pmoles/min/µg protein and 319.315 pmoles/min/µg protein and 325.525 pmoles/min/µg protein
OCR ([2]; MKN45, IC50 24 h, time 53.68 min (I5) / 53.58 min (I6)): 193.975 pmoles/min/µg protein and 265.77 pmoles/min/µg protein and 274.483 pmoles/min/µg protein
OCR ([2]; MKN45, IC50 24 h, time 60.27 min (I5) / 60.14 min (I6)): 39.9791 pmoles/min/µg protein and 45.1028 pmoles/min/µg protein and 42.2414 pmoles/min/µg protein
OCR ([2]; MKN45, IC50 24 h, time 66.75 min (I5) / 66.62 min (I6)): 39.1246 pmoles/min/µg protein and 45.4375 pmoles/min/µg protein and 44.5027 pmoles/min/µg protein
OCR ([2]; MKN45, IC50 24 h, time 73.23 min (I5) / 73.1 min (I6)): 38.1003 pmoles/min/µg protein and 46.0211 pmoles/min/µg protein and 46.1344 pmoles/min/µg protein
